Drawing on PubChem BioAssay (NCI), this text covers TGI and GI50 for 21 compounds.

What all share (test): NCI tumour cell line growth inhibition, 48 h
Test [1] has as its system DMS 273 small cell lung.
The test system of test [2] is DLD-1 colon.
Test [3] deals with SNB-78 CNS.
The subject of test [4] is M19-MEL melanoma.
Test [5] relates to HOP-18 NSCLC.
In test [6] the test system is XF 498 CNS.
The subject of test [7] is MCF7 breast.
For test [8], the system named is NCI/ADR-RES ovarian.
For test [9], the system named is HS 578T breast.
For test [10], the system named is PC-3 prostate.

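Protocol summary: plate cells (96-well), add compound at 5 concentrations, incubate 48 h, interpolate endpoints linearly. Here, GI50 denotes the concentration required for 50% inhibition of growth. Definition used: TGI = concentration required for complete inhibition of growth.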 A value given as a limit tells only on which side of the number the result lay.

For `COc1cc2cc3c4c(cc(OC)c(OC)c4c2cc1OC)CCN3C(=O)CCCC(=O)O`, the TGI in test [1], in test [2], in test [3] and in test [4] was more than 100 µM each time.
For `COc1ccc(/C=C/C(=O)c2sc(N)nc2C)cc1`, the TGI in [1], in [2], in test [5], in test [3] and in [4] was more than 100 µM each time.
Regarding `CC(=O)OC1(C#N)CC2OC1C1C2N1C(=O)c1ccccc1` (configuration not stated), the TGI in [2], in [3], in test [4] and in test [6] was more than 100 µM each time.
`CN(C)c1cccc(-c2cc(=O)c3ccccc3[nH]2)c1`: the TGI in [1], in test [2], in test [3] and in [4] was more than 100 µM each time.
Take `CCc1cccc(C(C)CC)c1N=C(NC(=O)c1ccccc1C(=O)NC(=Nc1c(CC)cccc1C(C)CC)SC)SC` (configuration not stated): the TGI in test [2], in test [5], in test [3], in test [4] and in test [6] was more than 100 µM in each case.
Consider `O=C(NCCCN1CCN(CCCNC(=O)c2cnc3ccccc3n2)CC1)c1cnc2ccccc2n1`, for which the TGI in test [1], in [2], in [5], in [3] and in test [4] was more than 100 µM in each case.
As for `CC(=O)CC(=O)CCCC(=O)Nc1ccc(Cl)cc1C`, the TGI in test [1], in test [2], in [5], in test [3] and in test [4] was more than 100 µM in each case.
As to `Cc1cc(C)nc(NS(=O)(=O)c2ccc(Nc3c4ccccc4nc4c(C(=O)NCCN(C)C)ccc(Cl)c34)cc2)n1`, the TGI in [2] was 13.4 µM; in [3] it was 35.5 µM; in test [4], 7.84 µM; in [6] it was 17.3 µM.
Take `NC(=O)c1ccccc1NC(=O)C(=O)C(C(=O)c1ccc2ccccc2c1)C1OC(=O)c2ccccc21` (configuration not stated): the TGI was 38.5 µM in [1]; 22.7 µM in test [5]; more than 100 µM in test [3]; 25.5 µM in test [4]; 12.8 µM in test [6].
Regarding `CCOP(=O)(CCP(=O)(OCC)OCC)OCC.C[CH2][Sn]([Cl])([Cl])[CH2]C`, the GI50 in test [1] is more than 75.1 µM; in test [2], 27.7 µM; in [7], 21.6 µM; in [5], 20.7 µM; in test [8], more than 100 µM; in test [3], 17.2 µM. The GI50 is 24.8 µM in test [4], more than 100 µM in test [9] and more than 100 µM in test [10]. Besides, the TGI in test [1] was more than 100 µM; in test [2], more than 79 µM; in test [7], 44.4 µM; in test [5], 35 µM; in test [8], more than 100 µM; in [3] it was 41.8 µM. Besides, the TGI in [4] was more than 60.4 µM; in test [9], more than 100 µM; in test [10], more than 100 µM.
As to `C=CCC(C(=O)OC)C1(C(=O)OC)c2[nH]c3ccccc3c2CCN1Cc1ccccc1` (configuration not stated), the TGI in test [2] and in test [4] was more than 100 µM each time.
Regarding `C/C(=N\NC(=O)CC(=O)Nc1ccc(C)cc1)c1cc2ccccc2oc1=O`, the TGI in test [1], in test [2], in test [5], in [4] and in test [6] was more than 100 µM in each case.
For the compound `O=C(CCc1nnc2s/c(=C\c3ccccc3)c(=O)n12)Nc1cc(Cl)ccc1Cl`, the TGI in [1], in test [2], in test [5], in test [3], in test [4] and in test [6] was more than 100 µM throughout.
On to `CCCCCCCCCCCCCCCCOC(=O)C(C(=O)OCCCCCCCCCCCCCCCC)[N+](C)(C)CCOC(C)=O`, for which the TGI in test [1] came out at 25 µM; in test [2], 31.3 µM; in test [5], 30.3 µM; in test [3], 45.7 µM; in [4], 30.4 µM.
In the case of `Cc1cc2c3ccccc3n(C)c2c2c1C(=O)c1ccccc1C2=O`, the TGI in test [1] was determined as 50.1 µM; in test [2] it was 31.8 µM; in test [4] it was 10.3 µM; in test [6], 35.7 µM.
With `N=C(N)n1ncc(Cl)c(Cl)c1=O`, the TGI was 4.78 µM in test [1]; 5.24 µM in test [2]; 2.86 µM in test [5]; 3.98 µM in test [3]; 3.77 µM in test [4]; 3.86 µM in [6].
As to `C/C(CN1C(=O)c2ccccc2C1=O)=N\NS(=O)(=O)c1ccccc1`, the TGI in test [1], in test [2], in [5], in [3] and in [4] was more than 100 µM each time.
As to `CC1=C(C(=O)Nc2cccc(C(F)(F)F)c2)C(c2ccc(O)cc2)C(C(=O)Nc2cccc(C(F)(F)F)c2)=C(C)N1`, the TGI in [2] came to 73.3 µM; in [3], 83.2 µM; in [4], 40.3 µM; in test [6], 8.06 µM.
Take `O=[N+]([O-])c1cccc(C2SCc3nc4ccccc4n32)c1` (configuration not stated): the TGI in test [1], in [2], in [5], in test [3] and in test [4] was more than 100 µM throughout.
In the case of `CN(C)CCNC(=O)c1cccc2nc3ccc4ccccc4c3nc12`, the TGI in test [1] amounted to 0.246 µM; in test [2] it was 1.46 µM; in test [5], 0.446 µM; in test [3] it was 10 µM; in [4], 0.224 µM.
Regarding `COc1c(OC(C)=O)cc2c(OC(C)=O)c1CC(C)CC(OC)C(O)C(C)/C=C(\C)C(OC(N)=O)C(OC)/C=C\C=C(/C)C(=O)N2` (configuration not stated), the TGI in test [1], in test [2], in test [5], in [3], in [4] and in test [6] was more than 100 µM each time.
